Reference: US9422331B2, “2-oxo-2,3,4,5-tetrahydro-1 H-benzo[B]diazepines and their use in the treatment of cancer” (Hoffmann-La Roche Inc., priority 2012, dated 2016)
Where a name gives a salt, the structure may show the parent alone. Read-outs that look alike come from different tables or passages of the source.

What was measured:
[1] = target: BIR3 domain of XIAP (Homo sapiens (Human), UniProt P98170); experiment: TR-FRET assay for BIR3: inhibition of binding of XIAP BIR3 domain to Peptide A (SMAC-derived peptide)
BIR3 domain of XIAP, sequence (P98170 241-356): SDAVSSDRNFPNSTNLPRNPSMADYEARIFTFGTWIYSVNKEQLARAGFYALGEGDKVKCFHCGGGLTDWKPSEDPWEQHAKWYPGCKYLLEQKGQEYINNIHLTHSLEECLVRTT

[2] = target: BIR2 domain of XIAP (Homo sapiens (Human), UniProt P98170, C202A/C213G); experiment: TR-FRET assay for BIR2: inhibition of binding of XIAP BIR2 domain to Peptide A (SMAC-derived peptide)
BIR2 domain of XIAP, sequence (P98170 124-240 C202A/C213G): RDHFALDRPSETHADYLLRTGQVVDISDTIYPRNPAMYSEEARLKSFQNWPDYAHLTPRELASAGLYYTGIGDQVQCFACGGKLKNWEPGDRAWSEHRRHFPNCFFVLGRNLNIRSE

[3] = 6x Histidine-tagged BIR3 domain (amino acids 241-356 of XIAP), 10 nM, 20 nM peptide AVPIAQKSEK-(ε-biotin)-OH, TR-FRET
[4] = 6x Histidine-tagged BIR2 domain (amino acids 124-240 of XIAP), 10 nM, 20 nM peptide AVPIAQKSEK-(ε-biotin)-OH, TR-FRET

Compound	IC50 [1]	IC50 [2]	IC50 [1, 3]	IC50 [2, 4]
CN[C@@H](C)C(=O)N[C@@H]1C(=O)N(Cc2c(C)cnc3ccccc23)c2ccccc2N(C(C)=O)[C@H]1C [Example 20, (S)-N-((2S,3S)-1-Acetyl-2-methyl-5-((3-methylquinolin-4-yl)methyl)-4-oxo-2,3,4,5-tetrahydro-1H-benzo[b][1,4]diazepin-3-yl)-2-(methylamino)propanamide dihydrochloride]	> 54.8 µM	0.055 µM		
CN[C@@H](C)C(=O)N[C@@H]1C(=O)N(Cc2nn(-c3ccccc3C#N)c3ccccc23)c2ccc(C#N)cc2N(C(=O)CS(C)(=O)=O)[C@H]1C [Example 53, (S)-N-((3S,4S)-7-cyano-1-((1-(2-cyanophenyl)-1H-indazol-3-yl)methyl)-4-methyl-5-(2-(methylsulfonyl)acetyl)-2-oxo-2,3,4,5-tetrahydro-1H-benzo[b][1,4]diazepin-3-yl)-2-(methylamino)propanamide 2,2,2-trifluoroacetate]	> 54.8 µM	0.033 µM		
CN[C@@H](C)C(=O)N[C@@H]1C(=O)N(Cc2noc3cc(Br)ccc23)c2ccccc2N(C(=O)CS(C)(=O)=O)[C@H]1C [Example 41, (S)-N-((3S,4S)-1-((6-bromobenzo[d]isoxazol-3-yl)methyl)-4-methyl-5-(2-(methylsulfonyl)acetyl)-2-oxo-2,3,4,5-tetrahydro-1H-benzo[b][1,4]diazepin-3-yl)-2-(methylamino)propanamide 2,2,2-trifluoroacetate]	> 54.8 µM	0.416 µM		
CN[C@@H](C)C(=O)N[C@@H]1C(=O)N(Cc2nn(-c3ccccc3C#N)c3ccccc23)c2ccccc2N(C(=O)c2ccc(C(C)=O)cc2)[C@H]1C [Example 3, (S)-N-{(2S,3S)-1-(4-acetyl-benzoyl)-5-[1-(2-cyano-phenyl)-1H-indazol-3-ylmethyl]-2-methyl-4-oxo-2,3,4,5-tetrahydro-1H-benzo[b][1,4]diazepin-3-yl}-2-methylamino-propionamide hydrochloride]			> 54.8 µM	0.012 µM
CN[C@@H](C)C(=O)N[C@@H]1C(=O)N(Cc2cc(=O)oc3cc(Cl)ccc23)c2ccccc2N(C(=O)CS(C)(=O)=O)[C@H]1C [Example 40, (S)-N-((3S,4S)-1-((7-chloro-2-oxo-2H-chromen-4-yl)methyl)-4-methyl-5-(2-(methylsulfonyl)acetyl)-2-oxo-2,3,4,5-tetrahydro-1H-benzo[b][1,4]diazepin-3-yl)-2-(methylamino)propanamide 2,2,2-trifluoroacetate]	> 54.8 µM	0.354 µM		
CCN[C@@H](C)C(=O)N[C@@H]1C(=O)N(Cc2c(C)ccc3ccccc23)c2ccc(C#N)cc2N(C(=O)CS(C)(=O)=O)[C@H]1C [Example 28, (S)-N-((3S,4S)-7-Cyano-4-methyl-1-((2-methylnaphthalen-1-yl)methyl)-5-(2-(methylsulfonyl)acetyl)-2-oxo-2,3,4,5-tetrahydro-1H-benzo[b][1,4]diazepin-3-yl)-2-(ethylamino)propanamide hydrochloride]	> 54.8 µM	0.075 µM		
CN[C@@H](C)C(=O)N[C@@H]1C(=O)N(Cc2nn(-c3ccccc3C#N)c3ccccc23)c2ccccc2N(C(C)=O)[C@H]1C [Example 19, (S)-N-((2S,3S)-1-Acetyl-5-((1-(2-cyanophenyl)-1H-indazol-3-yl)methyl)-2-methyl-4-oxo-2,3,4,5-tetrahydro-1H-benzo[b][1,4]diazepin-3-yl)-2-(methylamino)propanamide]			> 54.8 µM	0.044 µM
CN[C@@H](C)C(=O)N[C@@H]1C(=O)N(Cc2ccnc3ccccc23)c2ccccc2N(C(=O)CS(C)(=O)=O)[C@H]1C [Example 16, (S)-N-((2S,3S)-2-Methyl-1-(2-(methylsulfonyl)acetyl)-4-oxo-5-(quinolin-4-ylmethyl)-2,3,4,5-tetrahydro-1H-benzo[b][1,4]diazepin-3-yl)-2-(methylamino)propanamide hydrochloride]	> 54.8 µM	0.179 µM		
